Reference: patent publication US8148392B2, “2-indolyl imidazo [4,5-d] phenanthroline derivatives and their use in the treatment of cancer” (Lorus Therapeutics Inc., priority 2005, dated 2012)
Entries after “also recorded” stand apart in the source; their conditions may differ. Where two headings read alike, the source gives them in different places.

Key:
Assay type in all cases: cell-based, human
KLF4 [1] = assay: KLF4 gene expression by RT-PCR, PC-3; details: PC-3, relative to vehicle control as 1
Source text: (§1) Gene expression levels of KLF4, induced by compounds of Formula I, were also examined on various cancer cell types by RT-PCR. Fold changes in KLF4 in compound-treated cells were expressed relative to KLF4 expression in vehicle control-treated cells of respective cell type as “1”. […] Additionally, xenografts of MDA-MB-435 implanted into mammary fat pads of female SCID mice have shown immunohistochemical staining consistent with melanocytic origin (Ellison G, Klinowska T, Westwood R F, Docter E, French T, Fox J C. (2002) Mol Pathol. 55(5): 294-299). The breast cancer cell line MDA-MB-435 may be expected to function differently than the other breast cancer cell lines.

KLF4 [2] = assay: KLF4 gene expression by RT-PCR, HT-29; details: for KLF4 expression change with zinc supplement: HT-29, 1 μM compound plus 35 μM ZnCl2, 16 hr; for KLF4 gene expression, change: HT-29, 1 μM, in words; for KLF4 (gene fold increase): HT-29, relative to vehicle control as 1
Protocol: (§2) To determine whether compounds of Formula I can chelate zinc in cells, the effect of compound 3 on the expression level of a zinc-regulated gene, metallothionein 1A (MT1A), in human colon carcinoma HT-29 cells, was determined. HT-29 cells, 1×10^6 cells in 10 mL volume of the growth medium were seeded in 100 mm dishes and incubated overnight at 37° C. The medium was removed and replaced with the growth medium containing 35 μM ZnCl2, 1 μM or 4 μM TPEN (NNNN-tetrakis(2-pyridyl-methyl)ethylenediamine), or 1 μM or 4 μM compound 3, or 0.1% DMSO vehicle control. After incubation for 16 hours, the cells were detached by trypsinization, collected by centrifugation and washed once with PBS. Total RNA was extracted by using TRIZOL (Invitrogen, Life Technologies, Carlsbad, Calif.), following manufacturer's instruction, and the level of MT1A mRNA was measured by real time PCR using the comparative CT method as follows. First strand cDNA was synthesized from 200 ng total RNA in Biometra Tpersonal Thermal Cycler (Abgene, UK), using pd(N)6 random hexamer (Amersham Biosciences, Piscataway, N.J.) and SuperScript™ II Reverse Transcriptase kit (Invitrogen) by following manufacturer's protocol. Real-time PCR was performed in ABI Prism 7000 Sequence Detection System (Applied Biosystems Inc., ABI, Foster City, Calif.), using 5 μL of cDNA synthesized by above-mentioned procedure and respective TaqMan® Gene Expression Assays (ABI) by following ABI TaqMan® Universal PCR master mix protocol.
The ability of compounds of Formula I to modulate the mRNA level of a transition metal-regulated tumour suppressor gene was determined in vitro as follows. Compound 3 was tested to determine its ability to increase the expression of zinc-regulated tumour suppressor KLF4 mRNA in colon carcinoma HT-29 cells. […] HT-29 cells were incubated for 16 hours with DMSO as a vehicle control, 35 μM ZnCl2, 1 μM or 4 μM of compound 3, or 1 μM or 4 μM TPEN for 16 hours and mRNA was extracted from the cells as described in Example 19. The expression of KLF4 mRNA was analyzed by real-time polymerase chain reaction using the comparative CT method also as described in Example 19. Compound 3 induced the expression of KLF4 mRNA (approximately 8-fold) in HT-29 cells compared with HT-29 cells treated with vehicle alone (See FIG. 8).
as §1
The change in gene expression of KLF4 upon zinc depletion following compound 3 treatment was determined by RT-PCR as follows. HT-29 cells were treated with 1 μM compound 3 for the indicated time (FIG. 39A) or HT-29 cells were treated with 1 μM compound 3, 35 μM ZnCl2 or compund 3 and ZnCl2 together for 16 hr (FIG. 39B). Total RNA was extracted and gene expression level was determined by RT-PCR.
Fold change in KLF4 gene expression was presented relative to KLF4 expression in non-specific siRNA-transfected cells treated with vehicle control.

[3] = test system: HCT-116 colon cancer cells; assay: XTT cell proliferation assay, HCT-116; details: read-out: IC50 (cell growth inhibition)
Protocol: (§3) Cell growth inhibition IC50 (μM) by compounds of Formula I was tested on various cancer cell types by XTT cell proliferation assay. The growth inhibitory effects of the compounds of Formula I as shown below for the melanoma cell line SK-MEL-2 were reproducible by Lorus Therapeutics Inc.

[4] = test system: PC-3 prostate cancer cells; assay: XTT cell proliferation assay, PC-3; details: read-out: IC50 (cell growth inhibition)
Protocol: as §3

[5] = test system: metallothionein 1A (MT1A); assay: Metallothionein 1A (MT1A) mRNA expression in HT-29 cells, real time PCR; details: for MT1A expression change with zinc supplement: HT-29, 1 μM compound plus 35 μM ZnCl2; for MT1A gene expression, change: HT-29, versus DMSO control, in words
Protocol: as §2
The effect of compound 3 and compound 7 treatment on the expressions of a zinc-storage protein meallothionein 1A (MT1A) (FIG. 29A), a copper transporter, Ctrl also known as SLC31A1 (FIG. 29B) and an iron transporter; transferrin receptor 1 (TfR1) (FIG. 29C) were measured and compared with a known zinc chelator TPEN, a copper chelator tetramine and an iron chelator DFO, respectively. Despite in vitro chelation of Cu^+2, increase in copper-sensitive gene after compound 3 treatment was transient.
HT-29 cells were treated with 1 μM compound 3 for the indicated time and MT1A gene expression was measured as follows. Total RNA was extracted using TRIZOL method and gene expression level was determined by quantitative reverse-transcription polymerase chain reaction (RT-PCR). MT1A gene expression was normalized with β-actin gene expression in the same sample. Fold change in MT1A was expressed relative to MT1A level of DMSO control at respective time points.
To verify that the MT1A gene expression reflected the intracellular zinc level, HT-29 cells were treated with 1 μM compound 3, 35 μM ZnCl2 or compound 3 and ZnCl2 together for 16 hr (FIG. 38B). MT1A gene expression was determined by RT-PCR as described above. MT1A gene expression was elevated in response to increased intracellular zinc ions in ZnCl2-treated cells.
The ability of compounds of Formula I to modulate gene expression of MT1A (FIG. 55A), MTF-1 (FIG. 55B), Cyclin D1 (FIG. 55C) and KLF4 (FIG. 55D) was determined by RT-PCR. HT-29 cells were treated with 1 μM compound 3 or compound 7, 35 μM ZnCl2, compound 3 and ZnCl2 together, or compound 7 and ZnCl2 together for 8 to 16 hr. The respective gene expression was normalized with β-actin gene expression in the same sample. Fold change in gene expression was expressed relative to the respective gene level of DMSO control.
The effect of compound 3 and compound 64 on gene expression changes in MT1A (FIG. 57A), MTF-1 (FIG. 57B), Cyclin D1 (FIG. 57C) and KLF4 (FIG. 57D) in HT-29 cells was determined by RT-PCR. HT-29 cells were treated with 1 μM compound 3 or compound 64, 35 μM ZnCl2, compound 3 and ZnCl2 together, or compound 64 and ZnCl2 together for 8 to 16 hr. The respective gene expression was normalized with β-actin gene expression in the same sample. Fold change in gene expression was expressed relative to the respective gene level of DMSO control.

## Cc1[nH]c2ccc(F)cc2c1-c1nc2c3cccnc3c3ncccc3c2[nH]1 [Compound 7]
KLF4 [1]
  KLF4 (gene fold increase): 12.17 fold
KLF4 [2]
  KLF4 expression change with zinc supplement: reversed by addition of zinc supplement
  KLF4 gene expression, change: increased expression of KLF4
  KLF4 (gene fold increase): 8.66 fold
[3]; Homo sapiens
  IC50: 150 nM
[4]; Homo sapiens
  IC50: 210 nM
[5]
  MT1A expression change with zinc supplement: reversed by addition of zinc supplement
  MT1A gene expression, change: decreased expressions of MT1A, MTF-1 and Cyclin D1

## CCc1cccc2c(-c3nc4c5cccnc5c5ncccc5c4[nH]3)c(C(C)(C)C)[nH]c12 [Compound 64]
KLF4 [1]
  KLF4 (gene fold increase): 1.36 fold
KLF4 [2]
  KLF4 expression change with zinc supplement: reversed by addition of zinc supplement
  KLF4 gene expression, change: increased expression of KLF4
  KLF4 (gene fold increase): 5.96 fold
[3]
  IC50: 200 nM
[4]
  IC50: 460 nM
[5]
  MT1A expression change with zinc supplement: reversed by addition of zinc supplement
  MT1A gene expression, change: decreased expressions of MT1A, MTF-1 and Cyclin D1

## Cc1[nH]c2ccccc2c1-c1nc2c3cccnc3c3ncccc3c2[nH]1 [Compound 3]
KLF4 [1]
  KLF4 (gene fold increase): 16.28 fold
KLF4 [2]
  KLF4 expression change with zinc supplement: reversed by addition of zinc supplement
  KLF4 gene expression, change: Time-dependent increase in KLF4; also recorded: increased expression of KLF4
  KLF4 (gene fold increase): 6.5 fold
KLF4 [2]; HT-29, 16 hours, 1 μM or 4 μM, versus vehicle
  induction of KLF4 mRNA: approximately 8 fold
KLF4 [2]; HT-29 transfected with MTF-1 siRNA
  KLF4 gene expression after MTF-1 gene knock-down by siRNA: still increased
[3]; Homo sapiens
  IC50: 200 nM
[4]; Homo sapiens
  IC50: 300 nM
[5]
  MT1A expression change with zinc supplement: reversed by addition of zinc supplement
  MT1A gene expression, change: sustained decrease in zinc-sensitive gene; also recorded: decrease in MT1A gene expression was obvious after 8 hr treatment; also recorded: decreased expressions of MT1A, MTF-1 and Cyclin D1
[5]; HT-29, 16 hours, 1 μM or 4 μM
  decrease of MT1A expression: more than 50%
